Values after ≈ are worked out from the molar mass of the structure shown.
Key:
Assay type in all cases: functional
P388 [1] = test: Antitumor activity against mouse P388 cells; details: read-out: ED50 (the source's name)
P388 [2] = test: In vivo antitumor activity against mouse P388 cells at 40 ug/kg relative to control
P388 [3] = test: In vivo antitumor activity against mouse P388 cells at 20 ug/kg relative to control

In the case of `C=C(C)[C@]12C[C@@H](C)[C@@]34OC5(CCCCCCC[C@H](C)[C@H]6[C@H](C)[C@H](OC(=O)c7ccccc7)[C@@](O)([C@H](O)[C@@]7(CO)O[C@H]7[C@H]3[C@H]1O5)[C@@H]64)O2` [PIMELEA FACTOR P2], the EC50 (P388 [1]) was 0.79 ng/mL (≈ 1.24 nM), the T/C (P388 [2]) was 130 and the T/C (P388 [3]) was 132.
`C=C(C)[C@]12C[C@@H](C)[C@@]34O[C@](CCCCCCCCC)(O[C@@H]1[C@@H]3[C@@H]1O[C@]1(CO)[C@@H](O)[C@]1(O)C(=O)C(C)=C[C@H]14)O2` [SIMPLEXIN] was tested, and the EC50 (P388 [1]) was 5 ng/mL (≈ 9.39 nM).

Source: ChEMBL document CHEMBL1145666, “Geriatrics photo quiz. Thoracic aortic aneurysm” (1983)
